Test results as given in article PMC12668310, “High‐Throughput Synthesis and Screening of a Cyanimide Library Identifies Selective Inhibitors of ISG15‐Specific Protease mUSP18” (Angewandte Chemie (International Ed. in English), 2025).
Read-outs that look alike come from different tables or passages of the source.

Target: T1, mUSP18 (Mus musculus, UniProt Q9WTV6)
T1 construct: (46-368); His-tag (N); made in house
T1 sequence (Q9WTV6 46-368): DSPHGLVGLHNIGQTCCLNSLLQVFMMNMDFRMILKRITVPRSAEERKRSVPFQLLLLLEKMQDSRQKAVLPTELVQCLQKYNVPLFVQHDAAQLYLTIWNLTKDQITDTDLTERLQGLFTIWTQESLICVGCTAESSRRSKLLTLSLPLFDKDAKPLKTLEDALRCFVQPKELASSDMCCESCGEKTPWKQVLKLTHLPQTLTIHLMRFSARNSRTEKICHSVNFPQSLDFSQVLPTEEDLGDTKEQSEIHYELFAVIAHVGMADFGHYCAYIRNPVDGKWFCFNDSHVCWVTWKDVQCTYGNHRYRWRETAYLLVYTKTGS
Assay: High-throughput screening, ISG15ct-RhoMP, single dose 1.25 µM
Type: biochemical, murine
Conditions: mUSP18 %inhibition

[1] = carboxylic acid (CA) building block alone, read-out: %inh CA only
[2] = carboxylic acid (CA) with coupling reagents DIC/HOBT, read-out: %inh CA + DIC/HOBT

Structure (SMILES) | inhibition at 1.25 µM [1] | inhibition at 1.25 µM [2]
Cc1oc(-c2ccco2)nc1CC(=O)O [CA128] | 4.02% | 9.87%
O=C(O)c1ccccc1OCc1ccncc1 [CA129] | 8.78% | 10.2%
COc1ccc(N2CCN(C(C)C(=O)O)CC2)cc1 (stereo not shown) [CA130] | 7.09% | 7.3%
Cc1cc(C)c(C(=O)O)c(OCC2CCCCC2)n1 [CA131] | 9.41% | 31.3%
O=C(O)c1ccc(S(=O)(=O)NC2CC2)cc1 [CA132] | 7.6% | 4.16%
O=C(O)c1cc(-c2ccc(Cl)cc2)oc1C(F)(F)F [CA133] | 11% | 11.8%
O=C(O)c1cccc(S(=O)(=O)Nc2ccc(Cl)cc2)c1 [CA134] | 10% | 11.6%
O=C(O)c1ccn(-c2ncc(C(F)(F)F)cc2Cl)n1 [CA135] | 4.28% | 10.4%
O=C(O)Cc1coc(-c2ccccc2)n1 [CA136] | 8.08% | 12.8%
Cn1cc(NS(=O)(=O)c2ccsc2C(=O)O)cn1 [CA137] | 3.97% | 20.1%
O=C(O)CC(NS(=O)(=O)c1ccccc1)c1ccc(Cl)cc1 (stereo not shown) [CA138] | 22.3% | 5.42%
O=C(O)c1cccc(S(=O)(=O)NCC2CCCO2)c1 (stereo not shown) [CA139] | 14.3% | -1.37%
O=C(O)c1c[nH]nc1-c1cccnc1 [CA140] | 9.15% | 7.35%
O=C(O)Cc1ccc(NS(=O)(=O)c2c(Cl)cccc2Cl)cc1 [CA141] | 9.99% | 2.69%
O=C(O)c1csc(-c2cnccn2)n1 [CA142] | 8.67% | 6.39%
O=C(O)c1cccc(S(=O)(=O)NC2CC2)c1 [CA143] | 5.82% | 3.07%
O=C(O)c1ccc(Oc2cccc(Cl)c2Cl)nn1 [CA144] | 10.8% | 12.9%
CC1CC1C(=O)N1CCCCC1C(=O)O (stereo not shown) [CA145] | 4.43% | 1.71%
O=C(O)c1ncoc1-c1ccco1 [CA146] | 8.58% | 6.8%

Structure (SMILES) | inhibition at 1.25 µM [1] | inhibition at 1.25 µM [2]
COc1cc(C(=O)O)ccc1OCc1c(C)noc1C [CA147] | 5.62% | 3.45%
O=C(O)c1cc(-c2ccc(Cl)s2)[nH]n1 [CA148] | 7.78% | 9.65%
O=C(O)Cc1ccc(S(=O)(=O)N2CCOCC2)s1 [CA149] | 9.87% | 8.05%
O=C(O)c1cc(OCc2ccccc2)ccn1 [CA150] | 3.17% | 5.95%
CN(Cc1ccco1)c1ccccc1C(=O)O [CA151] | 3.28% | 7.61%
Cc1cccc(C(=O)N2CCCCC2C(=O)O)n1 (stereo not shown) [CA152] | 2.22% | 6.16%
Cc1nc(-c2c(C)c(C)nn(C)c2=O)sc1C(=O)O [CA153] | 1.24% | 3.87%
O=C(O)c1cnc(COc2ccccc2)s1 [CA154] | 0.13% | 5.09%
CC1=NN(c2ccc(C(=O)O)cc2)CC1 [CA155] | 4.05% | 20.8%
Cc1oc(Cn2cc(Br)cn2)cc1C(=O)O [CA156] | 8.69% | 12.3%
Cn1cc(S(=O)(=O)NCc2ccco2)cc1C(=O)O [CA157] | 2.07% | 6.58%
O=C(O)Cc1cccc(OCc2ccccn2)c1 [CA158] | 1.44% | 6.76%
Cc1nc(-c2ncccn2)sc1C(=O)O [CA159] | 2.85% | 8.46%
O=C(O)c1cn(CCc2ccccc2)nn1 [CA160] | 3.82% | 10.4%
O=C(O)c1cn(CC(=O)N2CCCC2)nn1 [CA161] | 2.32% | 14.5%
COc1ccccc1-c1nnc(CC(=O)O)o1 [CA162] | 23.2% | 4.62%
Cc1ccc(N(CCC(=O)O)S(=O)(=O)c2ccccc2)cc1 [CA163] | 18.6% | 0.52%
CCC1(Cn2cc(C(=O)O)nn2)COC1 [CA167] | 10.3% | 2.71%
O=C(O)c1cnn(CC2CCCCO2)c1 (stereo not shown) [CA174] | 2.59% | 8.37%

Continued, values first:

inhibition at 1.25 µM [1] | inhibition at 1.25 µM [2] | Structure (SMILES)
14.4% | -2.41% | Cn1nccc1[1C@@H]1OCCC[1C@H]1C(=O)O [CA164]
16% | 9.48% | O=C(O)c1cc(-c2ccc(Br)cc2)ns1 [CA165]
10.9% | -0.27% | Cn1ncc(C2CC2)c1C(=O)O [CA166]
11.2% | -1.08% | O=C(O)c1cc(-n2ccnn2)ccc1F [CA168]
8.46% | 4.42% | O=C(O)c1noc(-c2cccc(Cl)c2)n1 [CA169]
9.55% | 3.27% | Cc1nnnn1-c1cc(C(=O)O)cc(C(F)(F)F)c1 [CA171]
9.83% | 13.4% | CC1CCN(c2ncc(C(=O)O)s2)CC1 [CA172]
8.54% | 5.44% | O=C(O)C1CCN(c2ccc(=O)[nH]n2)CC1 [CA173]
1.19% | 12.1% | Cc1cc(C(=O)O)c(C2CC2)s1 [CA175]
15.3% | 5.42% | O=C(O)c1ccc(-n2ccnc2)nn1 [CA176]
4.94% | 4.56% | O=C(O)c1c(-c2ccccc2)noc1C(F)F [CA177]
4.04% | 11.9% | O=C(O)C1(c2ccccc2Cl)CCOCC1 [CA178]
2.24% | 4.32% | Cc1noc(C)c1Cc1ccc(C(=O)O)o1 [CA179]
2.04% | 3.97% | Cc1cc(NS(=O)(=O)c2cccc(C(=O)O)c2)no1 [CA180]
2.59% | 16.4% | CN1CCN(C(=O)C2CC=CCC2C(=O)O)CC1 (stereo not shown) [CA181]
2.85% | 2.77% | O=C(O)c1ccc(S(=O)(=O)N2CCOCC2)cc1 [CA182]
4.52% | 3.13% | O=C(O)Cc1csc(-n2cccc2)n1 [CA183]
3.02% | 10.3% | Cc1cc(-c2nc(C)sc2CC(=O)O)c(C)s1 [CA184]
3.64% | 9.2% | O=C(O)C1CC(=O)N(CCOc2ccccc2Cl)C1 (stereo not shown) [CA185]
20.6% | 9.85% | O=C(O)c1ccc(-n2ncc(Cl)c(Cl)c2=O)cc1 [CA186]
12.1% | -2.66% | O=C(O)c1ccc(CN2CCOCC2)cc1 [CA187]

inhibition at 1.25 µM [1] | inhibition at 1.25 µM [2] | Structure (SMILES)
10.2% | -0.34% | O=C(O)c1cnc(-c2ccco2)s1 [CA188]
4.78% | -9.04% | O=C(O)Cc1csc(-c2cccs2)n1 [CA189]
9.48% | 6.54% | O=C(O)c1csc(-c2ccccn2)n1 [CA190]
4.33% | 1.25% | Cc1noc(C)c1COc1ccc(CC(=O)O)cc1 [CA191]
11.7% | 0.91% | O=C(O)c1cnc(-c2cccs2)s1 [CA192]
5.93% | 4.27% | O=C(O)CC1=NN(c2ncc(C(F)(F)F)cc2Cl)C(=O)C1 [CA193]
9.72% | 3.17% | O=C(O)c1cccc(COc2cccc(F)c2)c1 [CA194]
11% | 6.35% | O=C(O)c1occc1COc1ccccc1 [CA195]
6.54% | 3.44% | Cc1nc(-c2cnn(C)c2)sc1C(=O)O [CA196]
4.78% | 1.19% | O=C(O)C1CCN(C(=O)CCOc2ccccc2)CC1 [CA197]
0.78% | 2.3% | Cn1cc(S(=O)(=O)N2CCCC(C(=O)O)C2)cn1 (stereo not shown) [CA198]
1.4% | 2.51% | O=C(O)c1cc(S(=O)(=O)N2CCOCC2)c[nH]1 [CA199]
0.4% | 3.72% | COc1ccc(OCc2cc(C)on2)c(C(=O)O)c1 [CA200]
1.58% | 1.88% | O=C(O)C1CC(=O)N(CCN2CCOCC2)C1 (stereo not shown) [CA201]
0.44% | 3.16% | O=C(O)Cc1cccc(OCc2cccnc2)c1 [CA202]
0.22% | 4.09% | CN(Cc1cccnc1)S(=O)(=O)c1cc(C(=O)O)n(C)c1 [CA203]
-0.12% | 3.04% | Cc1n[nH]c(C)c1S(=O)(=O)N1CCC(C(=O)O)CC1 [CA204]
0.0344% | 4.51% | Cc1ccc(-c2cc(C(=O)O)[nH]n2)o1 [CA205]
1.55% | 4.49% | O=C(O)c1occc1CN1CCOCC1 [CA206]
-2.79% | 10.7% | O=C(O)c1ccc(COc2ccccc2Br)cc1 [CA207]
3.78% | 11.1% | O=C(O)c1cccc(-c2cnco2)c1 [CA208]
